In article PMC6271338, “Synthesis and Cytotoxic Evaluation of Alkoxylated Chalcones” (Molecules, 2014):

Key:
HepG2 cells = test: In vitro anti-proliferative SRB assay, HepG2; format: cell-based, human; details: for IC50: Homo sapiens, HepG2, increasing concentrations up to 30 μM, mean ± SD of at least three independent experiments; for SI (CC50 HMLE/IC50 HepG2) / SI (CC50 L02/IC50 HepG2): selectivity index; for SI (CC50 HMLE/IC50 HepG2): HMLE vs HepG2; for SI (CC50 L02/IC50 HepG2): L02 vs HepG2
HeLa cells = test: In vitro anti-proliferative SRB assay, HeLa; format: cell-based, human; details: for IC50: Homo sapiens, HeLa, increasing concentrations up to 30 μM, mean ± SD of at least three independent experiments; for SI (CC50 HMLE/IC50 Hela) / SI (CC50 L02/IC50 Hela): selectivity index; for SI (CC50 HMLE/IC50 Hela): HMLE vs HeLa; for SI (CC50 L02/IC50 Hela): L02 vs HeLa
MCF-7 cells = test: In vitro anti-proliferative SRB assay, MCF-7; format: cell-based, human; details: for IC50: Homo sapiens, MCF7, increasing concentrations up to 30 μM, mean ± SD of at least three independent experiments; for SI (CC50 HMLE/IC50 MCF7) / SI (CC50 L02/IC50 MCF7): selectivity index; for SI (CC50 HMLE/IC50 MCF7): HMLE vs MCF7; for SI (CC50 L02/IC50 MCF7): L02 vs MCF7
A549 cells = test: In vitro anti-proliferative SRB assay, A549; format: cell-based, human; details: for IC50: Homo sapiens, A549, increasing concentrations up to 30 μM, mean ± SD of at least three independent experiments; for SI (CC50 HMLE/IC50 A549) / SI (CC50 L02/IC50 A549): selectivity index; for SI (CC50 HMLE/IC50 A549): HMLE vs A549; for SI (CC50 L02/IC50 A549): L02 vs A549
SW1990 cells = test: In vitro anti-proliferative SRB assay, SW1990; format: cell-based, human; details: for IC50: Homo sapiens, SW1990, increasing concentrations up to 30 μM, mean ± SD of at least three independent experiments; for SI (CC50 HMLE/IC50 SW1990) / SI (CC50 L02/IC50 SW1990): selectivity index; for SI (CC50 HMLE/IC50 SW1990): HMLE vs SW1990; for SI (CC50 L02/IC50 SW1990): L02 vs SW1990
[1] = Cytotoxicity (SRB) against non-tumoral HMLE cells; format: cell-based, human; details: human, HMLE cells (non-tumoral human mammary epithelial cells); increasing concentrations up to 100 μM; mean ± SD of at least three independent experiments; read-out: Normal Human Cell Lines, CC50, HMLE
[2] = Cytotoxicity (SRB) against non-tumoral L02 cells; format: cell-based, human; details: human, L02 cells (non-tumoral human liver cell line); increasing concentrations up to 100 μM; mean ± SD of at least three independent experiments; read-out: Normal Human Cell Lines, CC50, L02
[3] = system: five human cancer cell lines (HepG2, HeLa, MCF-7, A549 and SW1990); test: In vitro anti-proliferative SRB assay, summary statements over the five-line panel; format: cell-based
Experimental: With a aim of identifying potential anticancer agents with enhanced levels of activity, as well as verifying the conclusions provided above, we took a14 as a starting compound, and then designed and synthesized a series of chalcones b1–42 bearing methoxy groups at the 2' and 6'-positions of the B-ring, whilst varying the substituents on the A-ring. The cytotoxicities of the resulting chalcones were evaluated in vitro against five human cancer cell lines and other two non-tumoral cell lines, including HepG2, HeLa, MCF-7, A549, SW1990, HMLE and L02, and the results are shown in Table 2.
HepG2 and MCF7 cells were grown in the Eagle’s minimum essential medium with Earle’s balanced salts (MEM-EBSS) medium, HeLa, A549 and L02 cells were grown in Dulbecco’s Modified Eagle Media (DMEM), SW1990 cells were grown in RPMI-1640 medium, and HMLE cell were grown in DMEM/F-12 medium. The media were supplemented with 100 U/mL penicillin, […] streptomycin and 10% fetal bovine serum (FBS), and incubated at 37 °C in a humidified atmosphere containing 5% CO2.
Cells were seeded into 96-well plates (4000 cells/well) and incubated at 37 °C in a humidified 5% CO2 atmosphere. After 24 h, the cells were treated with different concentrations of the compounds for 48 h in triplicate to generate dose-response curves. Cell viability was evaluated using the sulforhodamine B (SRB) assay as previous described. […] Etoposide was used as the positive control.

[4] = system: human mammary epithelial cell (HMLE); test: Cytotoxicity (SRB) against non-tumoral HMLE cells; format: cell-based; details: HMLE versus the five tumoral cell lines
[5] = most of their in vitro IC50 values against the five human cancer lines
[6] = Homo sapiens, nearly all of the IC50 values

IC50 (HepG2 cells) | IC50 (HeLa cells) | IC50 (MCF-7 cells) | IC50 (A549 cells) | IC50 (SW1990 cells) | IC50 [3, 5] | melting point | IC50 [3, 6] | Compound | SI (CC50 HMLE/IC50 HepG2) (HepG2 cells) | SI (CC50 L02/IC50 HepG2) (HepG2 cells) | SI (CC50 HMLE/IC50 Hela) (HeLa cells) | SI (CC50 L02/IC50 Hela) (HeLa cells) | SI (CC50 HMLE/IC50 MCF7) (MCF-7 cells) | SI (CC50 L02/IC50 MCF7) (MCF-7 cells) | SI (CC50 HMLE/IC50 A549) (A549 cells) | SI (CC50 L02/IC50 A549) (A549 cells) | SI (CC50 HMLE/IC50 SW1990) (SW1990 cells) | SI (CC50 L02/IC50 SW1990) (SW1990 cells) | CC50 at 48 h [1] | CC50 at 48 h [2] | further results
2.05 ± 0.22 µM | 5 ± 0.03 µM | 5.6 ± 0.17 µM | 6.35 ± 0.32 µM | 10 ± 0.14 µM | < 10 µM | 109 to 111.4 °C | – | COc1ccccc1C(=O)/C=C/c1c(OC)cccc1OC [b6, (E)-1-(2-Methoxyphenyl)-3-(2,6-dimethoxyphenyl)prop-2-en-1-one] | 2.0 | 4.3 | 0.8 | 1.8 | 0.7 | 1.6 | 0.6 | 1.4 | 0.4 | 0.9 | 4.01 ± 0.05 µM | 8.78 ± 1.21 µM | –
4.14 ± 0.11 µM | 5.02 ± 0.09 µM | 4.79 ± 0.13 µM | 5.78 ± 0.11 µM | 7.67 ± 0.04 µM | < 10 µM | 105.3 to 107.2 °C | – | CCOc1ccc(C(=O)/C=C/c2c(OC)cccc2OC)cc1OC [b16, (E)-1-(4-Ethoxy-3-methoxyphenyl)-3-(2,6-dimethoxyphenyl)prop-2-en-1-one] | 2.2 | 10.8 | 1.8 | 8.9 | 1.9 | 9.3 | 1.6 | 7.7 | 1.2 | 5.8 | 9.15 ± 1.33 µM | 44.7 ± 8.15 µM | –
0.25 ± 0.03 µM | 0.87 ± 0.25 µM | 2.4 ± 0.08 µM | 1.75 ± 0.15 µM | 1.24 ± 0.08 µM | < 10 µM | 121.7 to 123.5 °C | – | COc1cccc(OC)c1/C=C/C(=O)c1ccc(-c2ccccc2)cc1 [b22, (E)-1-([1,1'-Biphenyl]-4-yl)-3-(2,6-dimethoxyphenyl)prop-2-en-1-one] | 8.8 | 58.2 | 2.5 | 16.7 | 0.9 | 6.1 | 1.3 | 8.3 | 1.8 | 11.7 | 2.21 ± 0.09 µM | 14.5 ± 6.58 µM | fold as potent than etoposide (HepG2 cells; HepG2 cells, ratio of IC50 values versus etoposide): 20.4 fold; fold as potent than etoposide (SW1990 cells; SW1990 cells, ratio of IC50 values versus etoposide): 23.6 fold
5.7 ± 0.09 µM | 7.23 ± 0.07 µM | 8.56 ± 0.75 µM | 7.32 ± 0.29 µM | 10.07 ± 0.03 µM | < 10 µM | 148.6 to 150.3 °C | – | COc1cccc(OC)c1/C=C/C(=O)c1cccc(N)c1 [b23, (E)-1-(3-Aminophenyl)-3-(2,6-dimethoxyphenyl)prop-2-en-1-one] | 2.0 | 7.6 | 1.6 | 6.0 | 1.3 | 5.0 | 1.6 | 5.9 | 1.1 | 4.3 | 11.4 ± 0.76 µM | 43.2 ± 11.7 µM | –
> 30 µM | > 30 µM | > 30 µM | > 30 µM | > 30 µM | – | 172.3 to 173.7 °C | > 30 µM | COc1cccc(OC)c1/C=C/C(=O)c1cccc([N+](=O)[O-])c1 [b39, (E)-1-(3-Nitrophenyl)-3-(2,6-dimethoxyphenyl)prop-2-en-1-one] | – | – | – | – | – | – | – | – | – | – | > 100 µM | > 100 µM | –

The remaining lines, values behind:

Compound | IC50 (HepG2 cells) | IC50 (HeLa cells) | IC50 (MCF-7 cells) | IC50 (A549 cells) | IC50 (SW1990 cells) | IC50 [3, 5] | melting point | IC50 [3, 6] | SI (CC50 HMLE/IC50 HepG2) (HepG2 cells) | SI (CC50 L02/IC50 HepG2) (HepG2 cells) | SI (CC50 HMLE/IC50 Hela) (HeLa cells) | SI (CC50 L02/IC50 Hela) (HeLa cells) | SI (CC50 HMLE/IC50 MCF7) (MCF-7 cells) | SI (CC50 L02/IC50 MCF7) (MCF-7 cells) | SI (CC50 HMLE/IC50 A549) (A549 cells) | SI (CC50 L02/IC50 A549) (A549 cells) | SI (CC50 HMLE/IC50 SW1990) (SW1990 cells) | SI (CC50 L02/IC50 SW1990) (SW1990 cells) | CC50 at 48 h [1] | CC50 at 48 h [2] | further results
COc1ccc(OC)c(C(=O)/C=C/c2c(OC)cccc2OC)c1 [b18, (E)-1-(2,5-Dimethoxyphenyl)-3-(2,6-dimethoxyphenyl)prop-2-en-1-one] | 1.59 ± 0.15 µM | 4.56 ± 0.22 µM | 5.6 ± 0.06 µM | 4.16 ± 0.72 µM | 9.64 ± 0.18 µM | < 10 µM | 121 to 122 °C | – | 1.6 | 10.7 | 0.5 | 3.7 | 0.4 | 3.0 | 0.6 | 4.1 | 0.3 | 1.8 | 2.48 ± 0.34 µM | 17 ± 2.73 µM | –
COc1cccc(OC)c1/C=C/C(=O)c1ccc(O)cc1O [b27, (E)-1-(2,4-Dihydroxyphenyl)-3-(2,6-dimethoxyphenyl)prop-2-en-1-one] | 17.4 ± 1.01 µM | 24.84 ± 0.17 µM | 23.1 ± 0.82 µM | 17.3 ± 0.76 µM | > 30 µM | – | 218.7 to 220.2 °C | – | >5.8 | 2.0 | >4.0 | 1.4 | >4.3 | 1.5 | >5.8 | 2.1 | – | <1.2 | > 100 µM | 35.5 ± 5.72 µM | SI between the CC50 in HMLE and IC50 in tumoral cells [4]: 2–7 fold
COc1cccc(OC)c1/C=C/C(=O)c1ccc(C#N)cc1 [b30, (E)-1-(4-Cyanophenyl)-3-(2,6-dimethoxyphenyl)prop-2-en-1-one] | 20.4 ± 0.21 µM | > 30 µM | > 30 µM | > 30 µM | > 30 µM | – | 144.3 to 145.9 °C | > 30 µM | 0.6 | >4.9 | <0.4 | – | <0.4 | – | <0.4 | – | <0.4 | – | 12.6 ± 2.82 µM | > 100 µM | –
COc1cccc(OC)c1/C=C/C(=O)c1ccc([N+](=O)[O-])cc1 [b40, (E)-1-(4-Nitrophenyl)-3-(2,6-dimethoxyphenyl)prop-2-en-1-one] | > 30 µM | > 30 µM | > 30 µM | > 30 µM | > 30 µM | – | 147.3 to 148.6 °C | > 30 µM | – | – | – | – | – | – | – | – | – | – | > 100 µM | > 100 µM | –
COc1cccc(OC)c1/C=C/C(=O)c1cccc(C(F)(F)F)c1 [b41, (E)-1-(3-(Trifluoromethyl)phenyl)-3-(2,6-dimethoxyphenyl)prop-2-en-1-one] | 24.4 ± 5.87 µM | 29.1 ± 3.06 µM | > 30 µM | > 30 µM | > 30 µM | – | 145.3 to 146.7 °C | > 30 µM | >4.1 | >4.1 | >3.4 | >3.4 | – | – | – | – | – | – | > 100 µM | > 100 µM | –
COc1cccc(OC)c1/C=C/C(=O)c1cc(C(F)(F)F)cc(C(F)(F)F)c1 [b42, (E)-1-(3,5-bis(Trifluoromethyl)phenyl)-3-(2,6-dimethoxyphenyl)prop-2-en-1-one] | > 30 µM | > 30 µM | > 30 µM | > 30 µM | > 30 µM | – | 126.5 to 127.8 °C | > 30 µM | – | – | – | – | – | – | – | – | – | – | > 100 µM | > 100 µM | –
